Source: US20210330611A1, “THERAPY FOR NEUROLOGICAL DISEASES/DISORDERS” (priority 2020, published 2021)
pIC50: −log10 of the molar value. Structures can show the parent of a compound that is named as a salt. Where two headings read alike, the source gives them in different places.

Experiments:
[1] = system: LPS-induced microglia activation; test: Image-based assay of LPS-induced microglia activation (HTS and dose response); assay type: cell-based, rat
[2] = system: fibrin-induced microglia activation; test: Image-based assay of fibrin-induced microglia activation (HTS and dose response); assay type: cell-based, rat; conditions: for pIC50: read-out: Fibrin IC50; for IC50: read-out: Fibrin IC50 (uM) (Suppl. Table 7); for inhibition at 10 µM: read-out: Fibrin % inhibition
[3] = system: fibrin- and LPS-induced microglia activation; test: cells; assay type: cell-based, rat; conditions: for inhibition at 10 µM: Rattus norvegicus
primary rat microglia [4] = test: Cell toxicity (dead cells, size <150 μm2) in LPS assay; conditions: for IC50: read-out: Cell Toxicity IC50 (uM) [LPS assay]
primary rat microglia [5] = system: primary rat microglia
primary rat microglia [6] = test: Cell toxicity (dead cells, size <150 μm2) in coated fibrin (cFib) assay;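 for Fibrin % cell toxicity: share of dead cells sized under 150 µm2 at 10 µM in fibrin-stimulated microglia HTS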
primary rat microglia [7] = system: primary rat microglia; remark: listed apart in the source
in vitro = conditions: rat, Cell Toxicity IC50 (uM) [cFib assay], cFib assay
[8] = LPS-induced microglia activation, dose response; read-out: LPS IC50 (uM) (Suppl. Table 7)
[9] = Table 1; dose response 0.001-20 μM, triplicates, primary rat microglia, 48 h; read-out: LPS IC50
[10] = dose response, LPS-induced microglia activation; read-out: LPS IC50
[11] = primary microglia HTS, LPS stimulation; increased cell size (>800 μm^2) as marker of activation
[12] = primary microglia HTS, fibrin stimulation, increased cell size (>800 μm^2) as marker of activation
[13] = HTS of 1907 compounds, quadrant by fibrin and LPS inhibition
[14] = hit classification in microglia HTS
[15] = quadrant by fibrin and LPS inhibition in HTS of 1907 compounds
[16] = read-out: Cell Toxicity IC50 (uM) [cFib assay], cFib assay
[17] = Rattus norvegicus, Microglia, 48 h, primary microglia HTS, LPS stimulation; increased cell size (>800 μm^2) as marker of activation; read-out: LPS % inhibition
[18] = Rattus norvegicus, Microglia, primary microglia HTS, fibrin stimulation, increased cell size (>800 μm^2) as marker of activation
[19] = Rattus norvegicus, Microglia, primary HTS, 10 μM, LPS-stimulated primary microglia; read-out: LPS % inhibition
[20] = Rattus norvegicus, Microglia, primary HTS, 10 μM, fibrin-stimulated primary microglia
[21] = Rattus norvegicus, Microglia, 48 h; read-out: LPS % inhibition
[22] = Rattus norvegicus, Microglia, primary microglia HTS, fibrin stimulation, cell size >800 μm2 as marker of activation
[23] = classification by fibrin and LPS inhibition in HTS
[24] = Rattus norvegicus, Microglia, 48 h, read-out: LPS % inhibition
[25] = Rattus norvegicus, Microglia, primary microglia HTS, LPS stimulation, compounds at 10 μM; read-out: LPS % inhibition
[26] = Rattus norvegicus, Microglia, primary microglia HTS, fibrin stimulation, compounds at 10 μM
[27] = quadrant by fibrin and LPS inhibition, HTS at 10 μM

SMILES: CC(=O)[C@@]1(O)CC[C@H]2[C@@H]3C=C(Cl)C4=CC(=O)[C@@H]5C[C@@H]5[C@]4(C)[C@H]3CC[C@@]21C [Cyproterone, reference compound]
- IC50 [1, 8]: > 20 µM
- pIC50 [1, 9]: < 4.70
- pIC50 [1, 10]: < 4.70
- LPS % inhibition [1, 11]: 5%
- Fibrin % inhibition [2, 12]: 51%
- Hit ([3]; HTS hit classification): HIT (Hits were defined as molecules that exhibited greater than 50% inhibition of either fibrin or LPS activation)
- Quadrant (FIG. 5b) [3, 13]: Q3
- Quadrant (FIG. 5b) ([3]; Table 1, screen at 10 μM): Q3
- Cherry-picked Hit (Suppl. Table 7) [3, 14]: HIT (Hits were defined as molecules that exhibited greater than 50% inhibition of either fibrin or LPS activation)
- Quadrant (FIG. 5b) [3, 15]: Q3
- IC50 (primary rat microglia [4]; LPS assay): > 20 µM
- Fibrin % cell toxicity (primary rat microglia [5]): 1%
- IC50 (primary rat microglia [6]; [16]): > 20 µM
- LPS % cell toxicity (primary rat microglia [7]): 0%

SMILES: COc1cc2c(cc1O)CC[C@@H]1[C@@H]2CC[C@]2(C)[C@@H](O)CC[C@@H]12 [2-methoxyestradiol, reference compound]
- IC50 [1, 8]: 5 µM
- pIC50 [1, 9]: 5.30
- IC50 ([1]; Table 3; read-out: LPS IC50 (uM) (Suppl. Table 7)): 5 µM
- pIC50 [1, 10]: 5.30
- LPS % inhibition [1, 11]: 65%
- Fibrin Selectivity [2]: 2
- Fibrin Selectivity (LOG10) [2]: 0.21
- pIC50 ([2]; Table 1, dose response 0.001-20 μM, triplicates, primary rat microglia, 48 h): 5.52
- IC50 ([2]; Table 3): 3 µM
- pIC50 ([2]; dose response, fibrin-induced microglia activation): 5.52
- IC50 ([2]; fibrin-induced microglia activation, dose response): 3 µM
- Fibrin % inhibition [2, 12]: 63%
- Hit ([3]; HTS hit classification): HIT (Hits were defined as molecules that exhibited greater than 50% inhibition of either fibrin or LPS activation)
- Quadrant (FIG. 5b) [3, 13]: Q2
- Quadrant (FIG. 5b) ([3]; Table 1, screen at 10 μM): Q2
- Cherry-picked Hit (Suppl. Table 7) ([3]; Table 3): HIT (Hits were defined as molecules that exhibited greater than 50% inhibition of either fibrin or LPS activation)
- Quadrant (FIG. 5b) ([3]; Table 3, screen at 10 μM): Q2
- Cherry-picked Hit (Suppl. Table 7) [3, 14]: HIT (Hits were defined as molecules that exhibited greater than 50% inhibition of either fibrin or LPS activation)
- Quadrant (FIG. 5b) [3, 15]: Q2
- IC50 (primary rat microglia [4]; LPS assay): > 20 µM
- IC50 (primary rat microglia [4]; Table 3): > 20 µM
- Fibrin % cell toxicity (primary rat microglia [5]): 2%
- IC50 (primary rat microglia [6]; read-out: Cell Toxicity IC50 (uM) [cFib assay], Table 3): > 20 µM
- IC50 (primary rat microglia [6]; [16]): > 20 µM
- LPS % cell toxicity (primary rat microglia [7]): 2%

SMILES: CC[C@@H](C(=O)[C@@H](C)[C@@H](O)[C@H](C)[C@@H]1O[C@@H]([C@@H](CC)C(=O)O)CC[C@@H]1C)[C@H]1O[C@]2(C=C[C@@H](O)[C@]3(CC[C@@](C)([C@H]4CC[C@](O)(CC)[C@H](C)O4)O3)O2)[C@H](C)C[C@@H]1C [Salinomycin, sodium, reference compound]
- pIC50 ([1]; Rattus norvegicus, Microglia, 48 h, Table 1; dose response 0.001-20 μM, triplicates, primary rat microglia, 48 h; read-out: LPS IC50): 5.70
- inhibition at 10 µM [1, 17]: 101%
- IC50 ([1]; Rattus norvegicus, Microglia, LPS-induced microglia activation, dose response; read-out: LPS IC50 (uM) (Suppl. Table 7)): 2 µM
- pIC50 ([1]; Rattus norvegicus, Microglia, dose response, LPS-induced microglia activation; read-out: LPS IC50): 5.70
- pIC50 ([2]; Rattus norvegicus, Microglia, 48 h, Table 1, dose response 0.001-20 μM, triplicates, primary rat microglia, 48 h): 5.70
- pIC50 ([2]; Rattus norvegicus, Microglia, dose response, fibrin-induced microglia activation): 5.70
- IC50 ([2]; Rattus norvegicus, Microglia, fibrin-induced microglia activation, dose response): 2 µM
- inhibition at 10 µM [2, 18]: 100%
- Quadrant (FIG. 5b) [3, 13]: Q2
- inhibition at 10 µM ([3]; Microglia, HTS hit classification, read-out: Hit): > 50%
- inhibition at 10 µM ([3]; hit classification in microglia HTS, read-out: Cherry-picked Hit (Suppl. Table 7)): > 50%
- Quadrant (FIG. 5b) ([3]; Table 1, screen at 10 μM): Q2
- Activity ([3]; Table 7, fib = fibrin, LPS, tox = toxicity, sodium): fib/LPS
- Quadrant (FIG. 5b) [3, 15]: Q2
- LPS % cell toxicity (primary rat microglia [4]; primary microglia HTS, LPS stimulation, decreased size (<150 μm^2) as marker of toxicity): 1%
- IC50 (in vitro): > 20 µM
- IC50 (primary rat microglia [6]; Rattus norvegicus, Microglia, read-out: dead_IC50 (uM), Table 7, fibrin or LPS assay not specified): 3.86 µM
- Fibrin % cell toxicity (primary rat microglia [6]; primary microglia HTS, fibrin stimulation, decreased size (<150 μm^2) as marker of toxicity): 3%

SMILES: CC(C)COCC(CN(Cc1ccccc1)c1ccccc1)N1CCCC1 (stereo not drawn) [Bepridil]
- inhibition at 10 µM [1, 19]: 15%
- inhibition at 10 µM [2, 20]: 1%
- Quadrant (FIG. 5b) ([3]; primary HTS, 10 μM): Q4
- Fibrin % cell toxicity (primary rat microglia [5]; rat): 1%
- LPS % cell toxicity (primary rat microglia [7]; rat): 0%

SMILES: CC1CCC(NC(=O)N(CCCl)N=O)CC1 (stereo not drawn) [Semustine]
- inhibition at 10 µM [1, 21]: 18%
- inhibition at 10 µM [2, 22]: -7%
- Quadrant (FIG. 5b) [3, 23]: Q4
- Fibrin % cell toxicity (primary rat microglia [5]; rat): 1%
- LPS % cell toxicity (primary rat microglia [7]; rat): 0%

SMILES: N=C(N)c1ccc(OCCCCCOc2ccc(C(=N)N)cc2)cc1 [Pentamidine]
- inhibition at 10 µM [1, 24]: 33%
- inhibition at 10 µM ([2]; Rattus norvegicus, Microglia): 6%
- Quadrant (FIG. 5b) [3]: Q4
- Fibrin % cell toxicity (primary rat microglia [5]; rat): 1%
- LPS % cell toxicity (primary rat microglia [7]; rat): 1%

SMILES: NCCNCCNCCN [Triethylenetetramine]
- inhibition at 10 µM ([1]; Rattus norvegicus, Microglia, read-out: LPS % inhibition): 10%
- inhibition at 10 µM ([2]; Rattus norvegicus, Microglia): 3%
- Quadrant (FIG. 5b) [3]: Q4
- Fibrin % cell toxicity (primary rat microglia [5]; rat): 1%
- LPS % cell toxicity (primary rat microglia [7]; rat): 0%

SMILES: N=c1ccn2c(n1)O[C@H]1[C@H](O)[C@@H](CO)O[C@H]12 [Ancitabine Hydrochloride]
- inhibition at 10 µM [1, 25]: 27%
- inhibition at 10 µM [2, 26]: -4%
- Quadrant (FIG. 5b) [3, 27]: Q4
- Fibrin % cell toxicity (primary rat microglia [5]; rat): 1%
- LPS % cell toxicity (primary rat microglia [7]; rat): 1%

SMILES: CN1CCC[C@H]1c1cccnc1 [Nicotine]
- inhibition at 10 µM [1, 24]: 21%
- inhibition at 10 µM ([2]; Rattus norvegicus, Microglia): 2%
- Quadrant (FIG. 5b) [3]: Q4
- Fibrin % cell toxicity (primary rat microglia [5]; rat): 1%
- LPS % cell toxicity (primary rat microglia [7]; rat): 1%

SMILES: Cc1cc2c(s1)Nc1ccccc1N=C2N1CCN(C)CC1 [Olanzapine]
- inhibition at 10 µM [1, 24]: 9%
- inhibition at 10 µM ([2]; Rattus norvegicus, Microglia): 6%
- Quadrant (FIG. 5b) [3]: Q4
- Fibrin % cell toxicity (primary rat microglia [5]; rat): 1%
- LPS % cell toxicity (primary rat microglia [7]; rat): 0%

SMILES: O=C(c1ccc(OCCN2CCCCC2)cc1)c1c(-c2ccc(O)cc2)sc2cc(O)ccc12 [Raloxifene]
- inhibition at 10 µM [1, 17]: 60%
- inhibition at 10 µM [2, 18]: 7%
- Quadrant (FIG. 5b) [3, 15]: Q1
- Fibrin % cell toxicity (primary rat microglia [5]; rat): 0%
- LPS % cell toxicity (primary rat microglia [7]; rat): 1%

SMILES: CC(O)C(=O)O (stereo not drawn) [Lactic Acid]
- inhibition at 10 µM [1, 24]: 14%
- inhibition at 10 µM ([2]; Rattus norvegicus, Microglia): 0%
- Quadrant (FIG. 5b) [3]: Q4
- Fibrin % cell toxicity (primary rat microglia [5]; rat): 1%
- LPS % cell toxicity (primary rat microglia [7]; rat): 1%

SMILES: O=C(OCc1ccccc1)c1ccccc1 [Benzyl Benzoate]
- inhibition at 10 µM [1, 19]: 32%
- inhibition at 10 µM [2, 20]: 35%
- Quadrant (FIG. 5b) ([3]; primary HTS, 10 μM): Q4
- Fibrin % cell toxicity (primary rat microglia [5]; rat): 1%
- LPS % cell toxicity (primary rat microglia [7]; rat): 1%

SMILES: CC(=O)OCC[N+](C)(C)C [Acetylcholine]
- inhibition at 10 µM [1, 25]: 9%
- inhibition at 10 µM [2, 26]: -39%
- Quadrant (FIG. 5b) [3, 27]: Q4
- Fibrin % cell toxicity (primary rat microglia [5]; rat): 0%
- LPS % cell toxicity (primary rat microglia [7]; rat): 0%

SMILES: O=C(C1CCCCC1)N1CC(=O)N2CCc3ccccc3C2C1 (stereo not drawn) [Praziquantel]
- inhibition at 10 µM [1, 21]: 21%
- inhibition at 10 µM [2, 22]: -3%
- Quadrant (FIG. 5b) [3, 23]: Q4
- Fibrin % cell toxicity (primary rat microglia [5]; rat): 1%
- LPS % cell toxicity (primary rat microglia [7]; rat): 0%

SMILES: NC(=O)CC[C@H](N)C(=O)O [L-glutamine, Glutamine (I)]
- LPS % inhibition ([1]; primary microglia HTS, LPS stimulation, activation = cell size >800 μm2): 14%
- Fibrin % inhibition ([2]; primary microglia HTS, fibrin stimulation, activation = cell size >800 μm2): 4%
- Quadrant (FIG. 5b) [3, 15]: Q4
- Fibrin % cell toxicity (primary rat microglia [5]): 0%
- LPS % cell toxicity (primary rat microglia [7]): 0%

SMILES: O=CCc1ccc(-c2ccccc2)cc1
- LPS % inhibition ([1]; 10 µM): 7%
- Fibrin % inhibition ([2]; 10 µM): −26%
- Quadrant (FIG. 5b) [3]: Q4
- Fibrin % cell toxicity (primary rat microglia [5]): 0%
- LPS % cell toxicity (primary rat microglia [7]): 0%

SMILES: CC[C@@]1(O)C(=O)OCc2c1cc1n(c2=O)Cc2cc3c(CN(C)C)c(O)ccc3nc2-1 [Topotecan, Topotecan Hydrochloride]
- LPS % inhibition ([1]; primary microglia HTS, LPS stimulation, compounds at 10 μM): 112%
- Fibrin % inhibition ([2]; primary microglia HTS, fibrin stimulation, compounds at 10 μM): 112%
- Quadrant (FIG. 5b) [3, 27]: Q2
- Fibrin % cell toxicity (primary rat microglia [5]): 63%
- LPS % cell toxicity (primary rat microglia [7]): 40%
